Test results reported in PubChem BioAssay (NCI).
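All cell lines were grown in 96-well plates and treated with compound for 48 hours. Abbreviation: GI50, concentration required for 50% inhibition of growth. TGI is the concentration that stops growth completely.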

Assays:
Experiment in all cases: inhibition of tumour cell growth, NCI panel, 48 h
[1] = system: HT29 colon
[2] = system: K-562 leukemia
[3] = system: LOX IMVI melanoma
[4] = system: MOLT-4 leukemia
[5] = system: NCI-H23 lung
[6] = system: OVCAR-4 ovarian
[7] = system: OVCAR-8 ovarian
[8] = system: SK-MEL-2 melanoma
[9] = system: TK-10 renal
[10] = system: UACC-62 melanoma

SMILES | GI50 [1] [µM] | TGI [1] [µM] | GI50 [2] [µM] | TGI [2] [µM] | GI50 [3] [µM] | TGI [3] [µM] | GI50 [4] [µM] | TGI [4] [µM] | GI50 [5] [µM] | TGI [5] [µM] | GI50 [6] [µM] | TGI [6] [µM] | GI50 [7] [µM] | TGI [7] [µM] | GI50 [8] [µM] | TGI [8] [µM] | GI50 [9] [µM] | TGI [9] [µM] | GI50 [10] [µM] | TGI [10] [µM]
COc1ccc(-c2c(C#N)cnc(N)c2-c2nc3cc(C)c(C)cc3[nH]2)cc1 | 4.79 | > 100 | 6.03 | > 100 | 5.74 | > 100 | > 100 | > 100 | 5.37 | 33.3 | 22.5 | > 100 | 5.2 | 26.8 | 10.8 | 98 | 5.94 | 26.4 | 7.22 | > 100
COc1ccc2oc3c(ccc[n+]3C)c(=O)c2c1 |  | > 100 |  | > 100 |  | > 100 |  |  |  | > 100 |  | > 100 |  | > 100 |  | > 100 |  | > 100 |  | > 100
CC(=O)Nc1nc(C)c(-c2cc3c(c(S(C)(=O)=O)c2)C(=O)N([C@@H](C)C2CC2)C3)s1 | 31 | > 100 | 34.2 | > 100 | 29.1 | > 100 | 29.3 | > 100 | 31.1 | > 100 | 29.2 | > 100 | 39.4 | > 100 | 21.9 | 67.7 | 20.7 | 75.4 | 34.8 | > 100
CC1CC(c2ccc([N+](=O)[O-])cc2)=Nc2ccccc2S1=O (centres undefined) |  | 27.2 |  | 75 |  | 25.6 |  | > 100 |  | 37.2 |  | 62.3 |  | 32.9 |  | > 100 |  | 91.6 |  | 38.8
O=c1ccc2nc3ccc(O)cc3oc-2c1 |  | > 75.9 |  | 34.7 |  | 7.86 |  | > 100 |  | 14.3 |  | > 100 |  | > 100 |  | 57.7 |  | > 100 |  | 5.55
Cc1ccc(C(=O)C(C)N)cc1C (centres undefined) |  | > 100 |  | > 100 |  | > 100 |  | > 100 |  | > 100 |  | > 100 |  | > 100 |  | > 100 |  | > 100 |  | > 100
CC(=O)O[C@@H]1CN(S(=O)(=O)c2ccc(C)cc2)C[C@@H]1C1CCCCC1 |  | 74 |  | > 100 |  | 64 |  | 65.3 |  | > 100 |  | > 100 |  | 69.6 |  | 32.2 |  | 41.4 |  | 33.4
NC(=O)N/N=C/c1ccccc1O |  | > 100 |  | > 100 |  | > 100 |  | > 100 |  | > 100 |  | > 100 |  | > 100 |  | > 100 |  | > 100 |  | > 100
COc1cc2c(cc1O)N=C[C@@H]1CCC(O)N1C2=O (mixture of isomers) |  | 72.9 |  | 24.2 |  | 0.974 |  | 2.69 |  | 4.38 |  | 18 |  | 10 |  | 0.748 |  |  |  | 1.5
CC(CNc1nc(Nc2ccc(Cl)c(Cl)c2)nc(C(Cl)(Cl)Cl)n1)N(C)C (centres undefined) | 1.66 | 3.11 |  |  |  |  | 1.72 | 3.78 | 1.63 | 3.38 |  |  |  |  |  |  | 1.77 | 3.27 | 1.71 | 3.11
COc1ccc(/C=C/C(=O)/C=C(/C=C/c2ccc(OC)c(OC)c2OC)OB(F)F)c(OC)c1OC |  |  | 1.28 | > 100 | 0.721 | 2.4 | 0.425 | 4.74 |  |  | 5.09 | > 100 | 1.16 | > 100 | 2.36 | 8.09 | 9.03 | > 100 | 1.47 | 4.69
Nc1ccc2c(c1)S(=O)(=O)c1cc(N)ccc1-2 |  | > 100 |  | > 100 |  | > 100 |  | > 100 |  | > 100 |  | > 100 |  | > 100 |  | > 100 |  | > 100 |  | > 100
CCc1ncc(C(C)(O)c2ccccc2)n1Cc1ccccc1 (centres undefined) |  | > 100 |  | > 100 |  | 94 |  | 65.1 |  | > 100 |  | > 100 |  | > 100 |  | > 100 |  | > 100 |  | 54.2
